# Measured values as given in PubChem BioAssay AID179 (DTP/NCI, 2004).
# Where “and” joins values, the source holds several entries; their conditions need not be identical. Equal entries are not always repeated. Calls of active or inactive are those of the source.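 The calls were made as follows: active = compounds giving half or more protection of infected cells from virus-caused growth loss, again on retest; inactive = the rest.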
# Tested on: CEM cells HIV-1 protection, formazan growth assay
# Experiment: NCI AIDS Antiviral Assay
# Details: for IC50: measured here: growth of uninfected CEM cells
# Procedure, shortened: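 Protection of CEM cells against HIV-1 measured as cell growth via soluble formazan read-out, with five concentrations tested on both infected and uninfected cells; failure to protect may reflect toxicity.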
Compound,EC50 [µM],IC50,outcome
O=Cc1c(O)c2ccccc2[nH]c1=O,> 5.5,> 5.5 µM,–
O=C(N=Nc1ccccc1Br)NNc1ccccc1Br,> 200,> 100 µM,–
O=c1c(-c2ccc(O)cc2)coc2c(O)c(O)ccc12,> 200,28.8 µM,–
CN(C)CCC[N+]1=Nc2cccc3cccc(c23)N1,–,–,inactive
Nc1cc(N2CCOCC2)nc(=O)n1-c1ccc(Cl)cc1,> 200,> 200 µM,–
CCCc1onc(CCC(=O)N(Cc2ccccc2)Cc2ccccc2)c1CC,–,–,inactive
NNc1ncnc2cccc(Cl)c12,> 200,> 200 µM,–
CC(=O)N1C(OCc2ccccc2)CCN1c1ccccc1 (centres undefined),> 200,> 200 µM,–
COc1c(C(=O)c2ccc([N+](=O)[O-])cc2)cc(C(C)(C)C)cc1C(C)(C)C,–,–,inactive
O=C(/C=C/c1ccc(/C=C/C(=O)c2ccc(O)cc2)cc1)c1ccc(O)cc1,> 200,26.9 µM,–
CCCC[n+]1ccn(-c2nc3ccccc3n2C)c1,–,–,inactive
CC(=O)OC1C[C@@]2(C)C(CC[C@@H]2C(C)=O)[C@@H]2CC=C3C[C@@H](O)CC[C@]3(C)C12 (some centres undefined),–,–,inactive
COC1/C=C/OC2(C)Oc3c(C)c(O)c4c(O)c(c(/C=N/N5C(C)CN(Cc6ccccc6C#N)CC5C)c(O)c4c3C2=O)NC(=O)/C(C)=C\C=C\C(C)C(O)C(C)C(O)C(C)C(OC(C)=O)C1C (centres undefined),> 200,7.41 µM,–
Nc1nc2c(ncn2CC2OC(CO)C(CO)O2)c(=O)[nH]1 (centres undefined),> 115,> 115 µM,–
CC1(C)CC(=O)C(CC2C(=O)c3ccccc3C2=O)C(=O)C1C(=O)C(=O)Nc1cccc2ccc(O)cc12 (centres undefined),> 51.3,> 51.3 µM,–
CCO[C@@H]1OC(=O)[C@H]2C(c3ccc(Cl)cc3)=NO[C@@H]12,> 35.5,> 35.5 µM,–
COc1cccc2c(=O)c3c(O)c4cc(N(C)C)ccc4c(OC(C)=O)c3oc12,> 200,8.91 µM,–
CCOP(=O)(OCC)/C(C#N)=C/c1ccc(CO)o1,> 871,178 µM,–
Cc1cc(C)c(C)c(C(=O)OCC(C)(C)C)c1C,> 200,110 µM,–
Cn1c(=O)c2ncnnc2n(C)c1=O,> 200,93.3 µM,–
COc1ccc(C(=O)CC(=O)c2ccc3ccccc3n2)c(O)c1OC,> 200,12.9 µM,–
Cc1ccc([N+](=O)[O-])cc1NC(=O)C(=O)Cc1cc(=O)oc2cc(O)ccc12,> 468,363 µM,–

Compound,EC50 [µM],IC50,outcome
Cn1cnc([N+](=O)[O-])c1Sc1nnc(-c2cccnc2)n1C,> 794,6.61 µM,–
Cc1ccc(S(=O)(=O)NC(=O)Nc2nc(Cl)cc(Cl)n2)cc1,> 100,87.1 µM,–
O=c1[nH]nc(Cc2ccc(Cl)cc2)n1O,> 200,> 200 µM,–
O=C(O)CCCCCCCCCCCCl,> 200,91.2 µM,–
Cc1nn(C(=O)Cc2ccccc2)c2c1C(c1ccc(/C=C/c3ccccc3)cc1)SC(N)=N2 (centres undefined),148,> 200 µM,–
c1csc(-c2cc(-c3ccsc3)cs2)c1,> 200,> 200 µM,–
CNC(=O)CNC(=O)C(Cc1ccc(NC(=O)CCCCC(C)=O)cc1)NC(=O)C(CCC(=O)OCc1ccccc1)NC(=O)OC(C)(C)C (centres undefined),> 200,> 200 µM,–
CCOC(=O)/C(O)=C(/C(=O)OC)c1ccc(Cl)cc1,> 427,> 427 µM,–
NC(CCSSCCC(N)C(=O)O)C(=O)O (centres undefined),> 19.5,> 19.5 µM,–
O=S1(=O)c2ccccc2S(=O)(=O)c2ccccc21,87.1,> 200 µM,–
COC(CC1(OC)OC(=O)C=C1N)OC (centres undefined),–,–,inactive
Clc1cc2nsnc2c(Cl)n1,> 457,2.75 µM,–
O=C1C=C/C(=N\N=C(c2ccccc2)c2ccccc2)O1,> 200,145 µM,–
Cc1nn(C(=O)c2ccccc2O)c2c1C(c1ccc(O)cc1)SC(N)=N2 (centres undefined),> 2,0.129 µM,–
COc1cccc(C2c3cc4c(cc3OC(O)C2C)OCO4)c1OC (centres undefined),> 200,1.51 µM,–
Cn1c2ccccc2c2n[nH]c(=S)nc21,55,> 200 µM,–
O=[N+]([O-])c1ccc(NSc2ccccc2)cc1,> 200,9.33 µM,–
CC1CC12OC(=O)N(c1cc(Cl)cc(Cl)c1)C2=O (centres undefined),> 200,31.6 µM,–
Nc1ccccc1Sc1ccccc1,> 372,77.6 µM,–
Cc1nc2n(C)c3ncn(Cc4ccccc4)c3c(=O)n2c1/C=C/C(C)C,> 33.1,> 33.1 µM,–
CCN(CC)CCC(=O)c1ccc(Cl)cc1,> 912,12.3 µM,–
COc1ccc(/C=C(/C(=O)c2ccc(Cl)cc2)N2C=CC=CC2=C(C#N)C#N)cc1OC,> 20,0.117 µM,–

Compound,EC50 [µM],IC50,outcome
OC1(O)/C=C\CCCCC/C=C\1,> 200,129 µM,–
COC1CC(n2ccc(=O)[nH]c2=O)OC1CO (centres undefined),> 200,> 200 µM,–
CCOC(=O)C(=O)NNc1cc(=O)n(C)c(=O)n1C,> 200,> 200 µM,–
Cc1nc(-c2cccnc2)sc1C(=O)CC(=O)C(=O)Nc1cccc(NC(=O)C(=O)CC(=O)c2sc(-c3cccnc3)nc2C)n1,> 275,158 µM,–
COC(=O)C1CC23C=CCN4CC(C2C)C2(c5ccccc5NC12)C43 (centres undefined),> 200,112 µM,–
CN(C)c1ccc(C=Nc2ccc(SSc3ccc(N=Cc4ccc(N(C)C)cc4)cc3)cc2)cc1,> 200,25.1 µM,–
O[C@]12c3ccccc3C1CCCCC2N1CCOCC1 (some centres undefined),> 200,> 200 µM,–
NC(=S)N/N=C1\C(=O)N(CCc2ccccc2)C(=O)C1C(=O)NCCc1ccccc1 (centres undefined),> 81.3,70.8 µM,–
C/C(=C\CO)CCC1=C(C=O)C[C@H](OC2OCC(O)C(O)C2O)C2[C@@](C)(CO)CCC[C@]12C (some centres undefined),> 263,> 263 µM,–
O=C(OCc1c(-c2ccccc2)nn(-c2ccccc2)c1COC(=O)Oc1ccccc1)Oc1ccccc1,> 200,> 200 µM,–
O=[N+]([O-])/C(Cl)=C(\Nc1ccccc1)C(Cl)=C(Cl)Cl,> 200,32.4 µM,–
CCOC(=O)C1=Nc2ccccc2N=C(C2C(=O)C=C(C)OC2=O)C1 (centres undefined),> 200,> 200 µM,–
CC(=O)C1=C(C)N2C(=NC3=C(CCc4ccccc43)C2c2ccc(F)cc2)S1 (centres undefined),> 200,178 µM,–
N#C/C(=C\c1ccc(C#N)cc1)C(=O)O,> 36.3,> 36.3 µM,–
CC12CCC3(OCCO3)C(OC(=O)c3ccccc3)=C1CCC21OCCO1 (centres undefined),–,–,inactive
Cc1oc2cc(O)cc(O)c2c(=O)c1C,> 200,155 µM,–
Clc1ccc(Cl)c(-c2nc3ccccc3[nH]2)c1,> 97.7,> 97.7 µM,–
O=C(O)c1ccccc1/C=C1\Cc2cc3c(cc2C1=O)CCC3,> 200,> 200 µM,–
COC(=O)C(C)(C)OCc1ccc(C2NC(=O)N(c3cccc(Cl)c3)C(=O)N2c2cccc(Cl)c2)cc1 (centres undefined),> 200,24 µM,–
COc1ccc2c(c1)CC[C@@H]1[C@@H]2CC[C@]2(C)/C(=N/OCCN3CCCC3)CC[C@@H]12,> 200,1.12 µM,–
CN(C)CC/C(=N\Nc1ccc([N+](=O)[O-])cc1)c1ccccc1,–,–,inactive
CCOC(=O)CCC[P+](c1ccccc1)(c1ccccc1)c1ccccc1,> 200,22.4 µM and 7.76 µM,–
